The target of data set [1] is T1, Human Glucocorticoid Receptor (Homo sapiens, UniProt P04150).
T1 construct: endogenous in cells; host or cells: HeLa cells (stably transfected with the sPAP reporter under the MMTV LTR)
T1 sequence (P04150 1-777): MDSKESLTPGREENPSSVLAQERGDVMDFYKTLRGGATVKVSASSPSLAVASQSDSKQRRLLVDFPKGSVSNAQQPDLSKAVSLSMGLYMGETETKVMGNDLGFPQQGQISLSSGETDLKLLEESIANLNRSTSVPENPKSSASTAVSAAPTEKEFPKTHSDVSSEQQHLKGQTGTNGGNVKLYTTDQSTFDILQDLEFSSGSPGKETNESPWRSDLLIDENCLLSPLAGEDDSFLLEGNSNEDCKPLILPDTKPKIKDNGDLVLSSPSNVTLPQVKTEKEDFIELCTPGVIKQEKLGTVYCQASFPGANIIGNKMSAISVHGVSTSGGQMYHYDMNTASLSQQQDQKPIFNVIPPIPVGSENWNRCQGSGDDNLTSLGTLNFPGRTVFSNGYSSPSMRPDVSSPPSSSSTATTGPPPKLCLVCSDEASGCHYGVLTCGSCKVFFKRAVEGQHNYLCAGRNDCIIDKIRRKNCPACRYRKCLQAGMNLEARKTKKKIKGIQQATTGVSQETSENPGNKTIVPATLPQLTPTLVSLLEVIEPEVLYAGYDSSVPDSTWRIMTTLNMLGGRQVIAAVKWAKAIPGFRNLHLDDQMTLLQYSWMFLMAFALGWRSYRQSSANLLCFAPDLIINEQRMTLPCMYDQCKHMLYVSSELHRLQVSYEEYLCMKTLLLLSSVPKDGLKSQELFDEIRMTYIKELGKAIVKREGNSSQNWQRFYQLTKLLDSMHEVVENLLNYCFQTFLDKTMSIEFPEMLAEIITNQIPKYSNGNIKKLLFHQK
Kind of data set: functional in vitro glucocorticoid assay, sPAP reporter under MMTV LTR in transfected Hela cells. Format: cell-based. Conditions: sPAP transcription in transfected Hela cells, 72 hours incubation. From the text:
The functional assay used was a modification of the method described by T. S Berger et al, of J. of Steroid Biochem. Molec. Biol. 1992, 41 (3-8), 733-738, "Interaction of Glucocorticoid analogues with the Human Glucocorticoid Receptor".
Thus, Hela cells were stably transfected with a detectable reporter gene (secreted placental alkaline phosphatase, sPAP) under the control of a glucocorticoid response promoter (the LTR of the mouse mammary tumour virus, MMTV).
Various concentrations of standard (dexamethasone) or compounds of the invention were incubated with transfected Hela cells for 72 hours. At the end of the incubation, substrate ([…]) for sPAP was added and the product measured by a spectrophotometric method. Increased absorbance reflected increased sPAP transcription and concentration-response lines were constructed such that EC50 -values could be estimated.

Data set [2] in a line: Hydrolysis in Blood (stability in human plasma). Format: in vitro ADME.
The subject of another data set is rat ear oedema. Kind of data set: Anti-inflammatory activity: inhibition of rat ear oedema (croton oil). Type of data set: in vivo. Conditions: topical to ear with 5% croton oil in acetone, male rats, 6 hours. As to the method:
(i) Anti-inflammatory Activity--Inhibition of rat ear oedema
The test compounds are dissolved in acetone and 40 ul containing 5% croton oil is applied to the inner surface of each of the ears of 60-80 g male rats. Animals are killed 6 hours later and the ears are removed. Standard size (0.5 cm diameter) discs are punched out and the discs weighed. Mean weight of the ear discs is calculated and from this percentage inhibition of ear inflammation in relation to croton oil alone treated ears are calculated.

Bounds are passed on as bounds.

`CCC(=O)O[C@]1(C(=O)SC2COC(=O)C2)[C@H](C)C[C@H]2[C@@H]3C[C@H](F)C4=CC(=O)C=C[C@]4(C)[C@@]3(F)[C@@H](O)C[C@@]21C` (stereo partly drawn) [Example 9, 6α,9α-Difluoro-11α-hydroxy-16α-methyl-3-oxo-17α-propionyloxy-androsta-1,4-diene-17β-carbothioic acid S-(2-oxo-tetrahydro-furan-4-yl) ester] displayed an EC50 in data set [1] of less than 400 nM. Molecule `CCC(=O)O[C@]1(C(=O)SC2CCOC2=O)[C@H](C)C[C@H]2[C@@H]3C[C@H](F)C4=CC(=O)C=C[C@]4(C)[C@@]3(F)[C@@H](O)C[C@@]21C` (stereo partly drawn) [Example 1, 6α,9α-Difluoro-11β-hydroxy-16α-methyl-3-oxo-17α-propionyloxy-androsta-1,4-diene-17β-carbothioic acid S-(2-oxo-tetrahydro-furan-3-yl) ester] had an EC50 in data set [1] of less than 400 nM. `CCC(=O)O[C@]1(C(=O)SC2CCOC2=O)[C@H](C)C[C@H]2[C@@H]3C[C@H](F)C4=CC(=O)CC[C@]4(C)[C@@]3(F)[C@@H](O)C[C@@]21C` (some centres unmarked) [Example 4] came in with an EC50 in data set [1] of less than 400 nM. In data set [2], `CC1(C)O[C@@H]2C[C@H]3[C@@H]4C[C@H](F)C5=CC(=O)C=C[C@]5(C)[C@@]4(F)[C@@H](O)C[C@]3(C)[C@]2(C(=O)N[C@H]2CCOC2=O)O1` [Example 15, 6α,9α-Difluoro-11β-hydroxy-16α,17α-isopropylidenedioxy-3-oxo-androsta-1,4-diene-17β-carboxylic acid N-(2-oxo-tetrahydro-furan-3S-yl) amide] registered a half-life of less than 3 h. The same molecule registered an EC50 in data set [1] of less than 400 nM. Molecule `CC1(C)O[C@@H]2C[C@H]3[C@@H]4C[C@H](F)C5=CC(=O)C=C[C@]5(C)[C@@]4(F)[C@@H](O)C[C@]3(C)[C@]2(C(=O)SC2CCOC2=O)O1` (single isomer, unassigned) [Example 12, 6α,9α-Difluoro-11β-hydroxy-16α,17α-isopropylidenedioxy-3-oxoandrosta-1,4-diene-17β-carbothioic acid S-(2-oxo-tetrahydro-furan-3-yl) ester] displayed an EC50 in data set [1] of less than 400 nM. Molecule `CC1(C)O[C@@H]2C[C@H]3[C@@H]4C[C@H](F)C5=CC(=O)C=C[C@]5(C)[C@@]4(F)[C@@H](O)C[C@]3(C)[C@]2(C(=O)N[C@@H]2COC(=O)C2)O1` [Example 23, 6α,9α-Difluoro-11β-hydroxy-16α,17α-isopropylidenedioxy-3-oxo-androsta-1,4-diene-17β-carboxylic acid N-(2-oxo-tetrahydro-furan-4S-yl) amide] displayed a half-life in data set [2] of less than 3 h. This molecule had an EC50 in data set [1] of less than 400 nM. As to `CCC[C@@H]1O[C@@H]2C[C@H]3[C@@H]4C[C@H](F)C5=CC(=O)CC[C@]5(C)[C@@]4(F)[C@@H](O)C[C@]3(C)[C@]2(C(=O)SC2CCOC2=O)O1` (single isomer, unassigned) [Example 19, 16α,17α-(R-Butylidenedioxy)-6α,9α-difluoro-11β-hydroxy-3-oxo-androst-4-ene-17β-carbothioic acid S-(2-oxo-tetrahydro-furan-3-yl) ester], the EC50 in data set [1] is less than 400 nM. The same measure, in the same setting: the result for `CCC(=O)O[C@]1(C(=O)SC2CCC(=O)O2)[C@H](C)C[C@H]2[C@@H]3C[C@H](F)C4=CC(=O)C=C[C@]4(C)[C@@]3(F)[C@@H](O)C[C@@]21C` (stereo partly drawn) [Example 8, 6α,9α-Difluoro-11β-hydroxy-16α-methyl-3-oxo-17α-propionyloxy-androsta-1,4-diene-11β-carbothioic acid S-(5-oxo-tetrahydro-furan-2-yl) ester] reads less than 400 nM. In data set [2], `CCC[C@@H]1O[C@@H]2C[C@H]3[C@@H]4C[C@H](F)C5=CC(=O)CC[C@]5(C)[C@@]4(F)[C@@H](O)C[C@]3(C)[C@]2(C(=O)NC2CCOC2=O)O1` (single isomer, unassigned) [Example 22, 16α,17α-(R-Butylidenedioxy)-6α,9α-difluoro-11β-hydroxy-3-oxo-androst-4-ene-17β-carboxylic acid N-(2-oxo-tetrahydro-furan-3-yl) amide] displayed a half-life of less than 3 h. In data set [1], this molecule gave an EC50 of less than 400 nM. For `CCCC(=O)O[C@]1(C(=O)SC2CCOC2=O)[C@H](C)C[C@H]2[C@@H]3C[C@H](F)C4=CC(=O)C=C[C@]4(C)[C@@]3(F)[C@@H](O)C[C@@]21C` (stereo partly drawn) [Example 5, 17α-Butyryloxy-6α,9α-difluoro-11β-hydroxy-16α-methyl-3-oxo-androsta-1,4-diene-17β-carbothioic acid S-(2-oxo-tetrahydro-furan-3-yl) ester], the half-maximal effective concentration (EC50) in data set [1] is less than 400 nM. `CC(=O)O[C@]1(C(=O)SC2CCOC2=O)[C@H](C)C[C@H]2[C@@H]3C[C@H](F)C4=CC(=O)C=C[C@]4(C)[C@@]3(F)[C@@H](O)C[C@@]21C` (stereo partly drawn) [Example 6, 17α-Acetyloxy-α,9α-difluoro-11β-hydroxy-16α-methyl-3-oxo-androsta-1,4-diene-17β-carbothioic acid S-(2-oxo-tetrahydro-furan-3-yl) ester] registered an EC50 in data set [1] of less than 400 nM. In data set [1], `CC1(C)O[C@@H]2C[C@H]3[C@@H]4C[C@H](F)C5=CC(=O)C=C[C@]5(C)[C@@]4(F)[C@@H](O)C[C@]3(C)[C@]2(C(=O)N[C@H]2COC(=O)C2)O1` [Example 24, 6α,9α-Difluoro-11β-hydroxy-16α,17α-isopropylidenedioxy-3-oxo-androsta-1,4-diene-17β-carboxylic acid N-(2-oxo-tetrahydro-furan-4R-yl) amide] returned an EC50 of less than 400 nM. Turning to `CC1(C)O[C@@H]2C[C@H]3[C@@H]4C[C@H](F)C5=CC(=O)C=C[C@]5(C)[C@@]4(F)[C@@H](O)C[C@]3(C)[C@]2(C(=O)NC2CCOC2=O)O1` (stereo partly drawn) [Example 16, 6α,9α-Difluoro-11β-hydroxy-16α,17α-isopropylidenedioxy-3-oxo-androsta-1,4-diene-17β-carboxylic acid N-(2-oxo-tetrahydro-furan-3-yl) amide], the half-life in data set [2] is less than 3 h. The molecule further had a concentration for a half-maximal effect (EC50) in data set [1] of less than 400 nM.

In data set [1], `CCC(=O)O[C@]1(C(=O)SC2CCOC2=O)[C@@H](C)C[C@H]2[C@@H]3CCC4=CC(=O)C=C[C@]4(C)[C@@]3(F)[C@@H](O)C[C@@]21C` (single isomer, unassigned) [Example 7, 9α-Fluoro-11β-hydroxy-16β-methyl-3-oxo-17α-propionyloxy-androsta-1,4-diene-17β-carbothioic acid S-(2-oxo-tetrahydro-furan-3-yl) ester] yielded a concentration for a half-maximal effect (EC50) of less than 400 nM.

Take `CC1(C)O[C@@H]2C[C@H]3[C@@H]4C[C@H](F)C5=CC(=O)C=C[C@]5(C)[C@@]4(F)[C@@H](O)C[C@]3(C)[C@]2(C(=O)N[C@@H]2CCOC2=O)O1` (single isomer, unassigned) [Example 16 Isomer B, 6α,9α-Difluoro-11β-hydroxy-16α,17α-isopropylidenedioxy-3-oxo-androsta-1,4-diene-17β-carboxylic acid N-(2-oxo-tetrahydro-furan-3-yl) amide]: the “% Inhibition (ear inflammation)” value in the data set with rat ear oedema (dose 10 μg) came out at 42%.

Take `CCC[C@@H]1O[C@@H]2C[C@H]3[C@@H]4C[C@H](F)C5=CC(=O)CC[C@]5(C)[C@@]4(F)[C@@H](O)C[C@]3(C)[C@]2(C(=O)SC2CCOC2=O)O1` (single isomer, unassigned) [Example 19 Isomer A, 16α,17α-(R-Butylidenedioxy)-6α,9α-difluoro-11β-hydroxy-3-oxo-androst-4-ene-17β-carbothioic acid S-(2-oxo-tetrahydro-furan-3-yl) ester]: the “% Inhibition (ear inflammation)” value in the data set on rat ear oedema (dose 100 μg) was 54%.
